For four compounds, IC50 results are on record in patent US8202882B2, “5-cyanothienopyridines for the treatment of tumours” (Merck Patent Gesellschaft MIT Beschränkter Haftung, priority 2007, dated 2012).

The target of this test is T1, GST-ALK5 (TGF-beta receptor I kinase) (Homo sapiens, UniProt P36897).
T1 sequence (P36897 34-503): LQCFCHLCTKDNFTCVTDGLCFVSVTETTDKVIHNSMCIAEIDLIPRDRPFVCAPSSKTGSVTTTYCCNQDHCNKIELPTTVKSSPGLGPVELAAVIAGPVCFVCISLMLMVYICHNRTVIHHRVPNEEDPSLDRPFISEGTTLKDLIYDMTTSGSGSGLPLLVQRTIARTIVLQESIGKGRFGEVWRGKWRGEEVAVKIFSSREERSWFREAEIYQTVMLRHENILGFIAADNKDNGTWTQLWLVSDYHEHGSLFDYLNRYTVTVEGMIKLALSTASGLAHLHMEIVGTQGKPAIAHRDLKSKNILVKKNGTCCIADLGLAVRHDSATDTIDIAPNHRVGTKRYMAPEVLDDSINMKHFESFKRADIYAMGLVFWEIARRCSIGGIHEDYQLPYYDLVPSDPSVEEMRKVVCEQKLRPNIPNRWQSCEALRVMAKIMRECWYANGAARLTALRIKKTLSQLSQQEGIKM
In words: In-vitro (enzyme) kinase assay, 384-well flashplate; inhibition of TGF-beta. It is filed as biochemical. To be noted: GST-ALK5 with GST-SMAD2 substrate, 3 mM ATP (33P-ATP), 30° C., 45 min. The protocol:
In-Vitro (Enzyme) Assay for the Determination of the Efficacy of Inhibitors of the Inhibition of TGF-Beta-Promoted Effects Vermittelten Wirkungen
The kinase assay is carried out as 384-well flashplate assay. 31.2 nM of GST-ALK5, 439 nM of GST-SMAD2 and 3 mM of ATP (with 0.3 μCi of ^33P-ATP/well) are incubated in a total volume of 35 μl (20 mM of HEPES, 10 mM of MgCl, 5 mM of MnCl, 1 mM of DTT, 0.1% of BSA, pH 7.4) without or with test substance (5-10 concentrations) at 30° C. for 45 min. The reaction is stopped using 25 μl of 200 mM EDTA solution, filtered with suction at room temperature after 30 min, and the wells are washed with 3 times 100 μl of 0.9% NaCl solution. Radioactivity is measured in the TopCount. The IC50 values are calculated using RS1.
Usually IC50 stands for the concentration that inhibits the measured activity by half. A lower IC50 goes with higher potency. Take `N#Cc1c(NCC(O)CO)nc2sc(C(N)=O)c(N)c2c1-c1cc2ccccc2o1` (stereo not shown) [Compound A41, 3-Amino-4-benzofuran-2-yl-5-cyano-6-(2,3-dihydroxypropylamino)thieno[2,3-b]pyridine-2-carboxamide]: inhibition was half-maximal at 0.18 µM (IC50).
As for `CCS(=O)(=O)N1CCN(c2nc3sc(C(N)=O)c(N)c3c(-c3cc(C)c(C)o3)c2C#N)CC1` [Compound A53, 3-Amino-5-cyano-4-(4,5-dimethylfuran-2-yl)-6-(4-ethanesulfonylpiperazin-1-yl)thieno[2,3-b]pyridine-2-carboxamide], 0.24 µM corresponded to half-maximal inhibition (IC50).
For `N#Cc1c(N)nc2sc(C(N)=O)c(N)c2c1-c1nc2ccccc2s1` [Compound A16, 3,6-Diamino-4-benzothiazol-2-y1-5-cyanothieno[2,3-b]pyridine-2-carboxamide] the value was 0.29 µM; for `CN1CCN(CCCNc2nc3sc(C(N)=O)c(N)c3c(-c3cc4ccccc4o3)c2C#N)CC1` [Compound A30, 3-amino-4-benzofuran-2-yl-5-cyano-6-[3-(4-methylpiperazin-1-yl)propylamino]thieno[2,3-b]pyridine-2-carboxamide], 0.063 µM.
